Test results published in ChEMBL document CHEMBL3792288, “VP1 crystal structure-guided exploration and optimization of 4,5-dimethoxybenzene-based inhibitors of rhinovirus 14 infection” (Eur J Med Chem, 2016).
Calls of active or inactive are those of the source. The calls are words filed in the database; no cut-off is given here.

Tests used:
Rhinovirus B = assay: Antiviral activity against Human Rhinovirus B serotype 14 infected in HeLa Rh cells assessed as reduction of virus-induced cytopathic effect after 3 days by MTS assay; assay type: functional, organism-based; details: serotype 14, HeLa Rh, 72 h
[1] = Cytotoxicity against human HeLa Rh cells assessed as cell viability by light microscopy; assay type: cell-based
[2] = Selectivity index, ratio of CC50 for human HeLa Rh cells to EC50 for Human Rhinovirus B serotype 14 infected in HeLa Rh cells; assay type: toxicity, cell-based; details: read-out: Ratio CC50/EC50
Rhinovirus A = assay: Antiviral activity against Human Rhinovirus A serotype 2 infected in HeLa Rh cells assessed as reduction of virus-induced cytopathic effect after 3 days by MTS assay; assay type: functional, cell-based

Row | SMILES | EC50 (Rhinovirus B) | CC50 [1] | selectivity ratio [2] | Activity (Rhinovirus A)
1 | COc1cc(CC(O)c2ccc(-c3cccnc3)cc2)c([N+](=O)[O-])cc1OC (stereo not drawn) | 2 µM | > 263 µM | > 132 | inactive
2 | COc1cc(CC(O)c2cccc(-c3ccc(Cl)cc3)c2)c([N+](=O)[O-])cc1OC (stereo not drawn) | > 5 µM | 5 µM | – | inactive
3 | COc1cc(CC(O)c2ccc(-c3ccc(F)cc3)cc2)c([N+](=O)[O-])cc1OC (stereo not drawn) | > 4.5 µM | 4.5 µM | – | inactive
4 | COc1cc(CC(O)c2ccc(-c3ccccc3F)cc2)c([N+](=O)[O-])cc1OC (stereo not drawn) | > 5 µM | 5 µM | – | inactive
5 | COc1cc(CC(O)c2ccc(-c3cccc(C#N)c3)cc2)c([N+](=O)[O-])cc1OC (stereo not drawn) | 1.4 µM | 5.2 µM | 3.7 | inactive
6 | Cc1cc(CCCOc2c(C)cc(-c3noc(C(F)(F)F)n3)cc2C)on1 [PLECONARIL] | 0.2 µM | 50.2 µM | – | inactive
7 | COc1cc(CC(O)c2ccc(-c3cccc(Cl)c3)cc2)c([N+](=O)[O-])cc1OC (stereo not drawn) | 1.7 µM | 5.9 µM | 3.5 | inactive
8 | COc1cc(CC(O)c2ccc(-c3cccc(F)c3)cc2)c([N+](=O)[O-])cc1OC (stereo not drawn) | 2.2 µM | 7.4 µM | 3.4 | inactive
9 | COc1cc(CC(O)c2ccc(-c3ccc(C)cc3)cc2)c([N+](=O)[O-])cc1OC (stereo not drawn) | > 4.7 µM | 4.7 µM | – | inactive
10 | COc1cc(CC(O)c2ccc(-c3cccc([N+](=O)[O-])c3)cc2)c([N+](=O)[O-])cc1OC (stereo not drawn) | 2.2 µM | 5.5 µM | 2.5 | inactive
11 | COc1cc(CC(O)c2cccc(-c3ccc(C#N)cc3)c2)c([N+](=O)[O-])cc1OC (stereo not drawn) | > 9.3 µM | 9.3 µM | – | inactive
12 | COc1cc(CC(O)c2ccc(-c3ccc(Br)cc3)cc2)c([N+](=O)[O-])cc1OC (stereo not drawn) | > 4.3 µM | 4.3 µM | – | inactive
13 | COc1cc(CC(O)c2ccc(-c3ccccc3)cc2)c([N+](=O)[O-])cc1OC (stereo not drawn) | 1.97 µM | – | – | –
14 | COc1cc(CC(O)c2ccc(-c3ccccc3[N+](=O)[O-])cc2)c([N+](=O)[O-])cc1OC (stereo not drawn) | 1.5 µM | 9.5 µM | 6.3 | inactive
15 | COc1cc(CC(O)c2ccc(-c3ccc(C=O)cc3)cc2)c([N+](=O)[O-])cc1OC (stereo not drawn) | > 245 µM | > 245 µM | – | inactive
16 | COc1cc(CC(O)c2ccc(-c3ccc(Cl)cc3)cc2)c([N+](=O)[O-])cc1OC (stereo not drawn) | > 4.1 µM | 4.1 µM | – | inactive
17 | COc1ccc(-c2ccc(C(O)Cc3cc(OC)c(OC)cc3[N+](=O)[O-])cc2)cc1 (stereo not drawn) | > 244 µM | > 244 µM | – | inactive
18 | COc1cc(CC(O)c2ccc(-c3ccoc3)cc2)c([N+](=O)[O-])cc1OC (stereo not drawn) | 1.6 µM | 5.3 µM | 3.3 | inactive
19 | COc1cc(CC(O)c2ccc(-c3ccc([N+](=O)[O-])cc3)cc2)c([N+](=O)[O-])cc1OC (stereo not drawn) | 4.7 µM | 21 µM | 4.5 | inactive
20 | COc1cc(CC(O)c2ccc(-c3ccc(C(F)(F)F)cc3)cc2)c([N+](=O)[O-])cc1OC (stereo not drawn) | > 6 µM | 4.1 µM | – | inactive
21 | COc1cc(CC(O)c2ccc(C#N)cc2)c([N+](=O)[O-])cc1OC (stereo not drawn) | 2.2 µM | 104 µM | – | –
22 | COc1cc(CC(O)c2ccc(-c3ccccc3CO)cc2)c([N+](=O)[O-])cc1OC (stereo not drawn) | 3 µM | 24 µM | 8 | inactive
23 | COc1cc(CC(O)c2ccc(-c3ccc(CO)cc3)cc2)c([N+](=O)[O-])cc1OC (stereo not drawn) | > 244 µM | > 244 µM | – | inactive
24 | COc1cc(CC(O)c2ccc(-c3cccc(CO)c3)cc2)c([N+](=O)[O-])cc1OC (stereo not drawn) | 1.4 µM | 6 µM | 4.3 | inactive
25 | COc1cc(CC(O)c2ccc(-c3ccc(C#N)cc3)cc2)c([N+](=O)[O-])cc1OC (stereo not drawn) | > 4.7 µM | 4.7 µM | – | inactive
26 | COc1cc(CC(O)c2ccc(-c3cccs3)cc2)c([N+](=O)[O-])cc1OC (stereo not drawn) | 1.6 µM | 11 µM | 6.9 | inactive
27 | COc1cc(CC(O)c2ccc(-c3ccccc3C#N)cc2)c([N+](=O)[O-])cc1OC (stereo not drawn) | > 9.3 µM | 9.3 µM | – | inactive
28 | COc1cc(CC(O)c2ccc(-c3ccncc3)cc2)c([N+](=O)[O-])cc1OC (stereo not drawn) | 3.4 µM | > 263 µM | > 77.3 | inactive
